Legend:
[1] = target: CYP3A4 (Homo sapiens, UniProt P08684); experiment: Cytochrome P450 reaction phenotyping, recombinant CYP3A4 (Bactosomes)
Experimental: Incubations were also performed using control Bactosomes™ (no P450 enzymes present) to reveal any non-enzymatic degradation. Control compounds known to be metabolised specifically by each P450 isoform were included. All incubations were performed singularly for each test compound.
Incubations were also performed using control Bactosomes™ (no P450 enzymes present) to reveal any non-enzymatic degradation. Control compounds known to be metabolised specifically by each P450 isoform were included. All incubations were performed singularly for each test compound. […] The reactions were stopped by transferring an aliquot of incubate to quench solvent at the appropriate time points, in a 1:3 ratio. The termination plates were centrifuged at 3,000 rpm for 20 min at 4° C. to precipitate the protein.

[2] = tested on: NBXF SK-N-BE(2); experiment: 2D monolayer CellTiter-Blue viability, neuroblastoma SK-N-BE(2); assay type: cell-based; settings: 72 h
Experimental: (§1) Seventeen compounds, including mebendazole (Batch no. […] Efficacy of compounds was assessed using CellTiter-Blue® Cell Viability Assay. Anti-tumor activity is expressed as absolute and relative IC50 and IC70 values, calculated by non-linear regression analysis.

[3] = tested on: SXFO U-2-OS; experiment: 2D monolayer CellTiter-Blue viability, osteosarcoma U-2-OS; assay type: cell-based; settings: 72 h
Experimental: as §1

Chain of CYP3A4 (P08684 whole entry, canonical isoform): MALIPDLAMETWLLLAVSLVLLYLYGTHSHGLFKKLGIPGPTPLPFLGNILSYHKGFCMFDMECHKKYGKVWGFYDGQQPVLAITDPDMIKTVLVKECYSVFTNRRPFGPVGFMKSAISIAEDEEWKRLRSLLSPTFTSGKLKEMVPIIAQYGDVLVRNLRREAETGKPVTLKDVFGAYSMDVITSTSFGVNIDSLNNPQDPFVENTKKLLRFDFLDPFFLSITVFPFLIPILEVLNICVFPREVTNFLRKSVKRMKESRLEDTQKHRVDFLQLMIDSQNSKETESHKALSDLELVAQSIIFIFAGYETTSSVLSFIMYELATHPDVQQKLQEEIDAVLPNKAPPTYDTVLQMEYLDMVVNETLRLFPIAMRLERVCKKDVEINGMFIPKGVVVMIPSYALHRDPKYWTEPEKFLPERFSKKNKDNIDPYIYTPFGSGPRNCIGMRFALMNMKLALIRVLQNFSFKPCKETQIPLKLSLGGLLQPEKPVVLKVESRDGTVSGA

Compound Remaining (% of 0 min) ([1]; CYP3A4, 5 μM, 0 min): 100 % of 0 min | Compound Remaining (% of 0 min) ([1]; CYP3A4, 5 μM, 5 min): 95.1 % of 0 min | Compound Remaining (% of 0 min) ([1]; CYP3A4, 5 μM, 15 min): 85.4 % of 0 min | Compound Remaining (% of 0 min) ([1]; CYP3A4, 5 μM, 30 min): 105 % of 0 min | Compound Remaining (% of 0 min) ([1]; CYP3A4, 5 μM, 45 min): 104 % of 0 min | % compound remaining ([1]; CYP3A4, 5 μM, time not stated): > 87.5% | t1/2 ([1]; CYP3A4, substrate 5 μM): >2.25 h | half-life at 5 μM ([1]; human, recombinant CYP3A4 (Bactosomes), pH 7.4): > 2.25 h
Compound: COC(=O)Nc1nc2ccc(C(=O)c3ccccc3)cc2[nH]1 [Mebendazole, methyl N-(6-benzoyl-1H-benzimidazol-2-yl)carbamate]
Test/Control (%) at Drug Concentration ([2]; 1.0E+00 μM): 13% | Test/Control (%) at Drug Concentration ([2]; 1.0E+01 μM): 3% | Test/Control (%) at Drug Concentration ([2]; 1.0E+02 μM): −1% | Test/Control (%) at Drug Concentration ([2]; 1.0E−01 μM): 55% | Test/Control (%) at Drug Concentration ([2]; 1.0E−02 μM): 85% | Test/Control (%) at Drug Concentration ([2]; 3.2E+00 μM): 6% | Test/Control (%) at Drug Concentration ([2]; 3.2E+01 μM): 2% | Test/Control (%) at Drug Concentration ([2]; 3.2E−01 μM): 23% | Test/Control (%) at Drug Concentration ([2]; 3.2E−02 μM): 80% | Test/Control (%) at Drug Concentration ([2]; 3.2E−03 μM): 87% | Test/Control (%) at Drug Concentration ([3]; 1.0E+00 μM): 38% | Test/Control (%) at Drug Concentration ([3]; 1.0E+01 μM): 13% | Test/Control (%) at Drug Concentration ([3]; 1.0E+02 μM): 6% | Test/Control (%) at Drug Concentration ([3]; 1.0E−01 μM): 82% | Test/Control (%) at Drug Concentration ([3]; 1.0E−02 μM): 89% | Test/Control (%) at Drug Concentration ([3]; 3.2E+00 μM): 19% | Test/Control (%) at Drug Concentration ([3]; 3.2E+01 μM): 11% | Test/Control (%) at Drug Concentration ([3]; 3.2E−01 μM): 54% | Test/Control (%) at Drug Concentration ([3]; 3.2E−02 μM): 86% | Test/Control (%) at Drug Concentration ([3]; 3.2E−03 μM): 85%

From US20220125765A1, “PHARMACEUTICAL COMBINATIONS COMPRISING MEBENDAZOLE AND A STRONG OR MODERATE CYP1A2 INHIBITOR” (ZEPHAPHARM LTD, priority 2019, published 2022)
